Test results: ChEMBL document CHEMBL3351660, “Isolation and total syntheses of cytotoxic cryptolactones A1, A2, B1, and B2: α,β-unsaturated δ-lactones from a Cryptomyzus sp. aphid” (J Nat Prod, 2014)
pIC50: −log10 of the molar value.

Test: Cytotoxicity against human HL60 cells after 24 hrs by MTT assay
Format: functional, cell-based
Conditions: HL-60, 24 h

**Q.** With `COc1cccc2c1C(=O)c1c(O)c3c(c(O)c1C2=O)C[C@@](O)(C(=O)CO)C[C@@H]3O[C@H]1C[C@H](N)[C@H](O)[C@H](C)O1` [DOXORUBICIN] as the compound, how does the pIC50 read?
**A.** The pIC50 was 6.85.

**Q.** With `CCCCCCCCCCCC(=O)C[C@H](O)C[C@@H]1CC=CC(=O)O1` as the compound, how does the pIC50 read?
**A.** The pIC50 was 6.01.

**Q.** With `CCCCCCCCCCCC(=O)C[C@@H](O)C[C@@H]1CC=CC(=O)O1` as the compound, how does the pIC50 read?
**A.** The pIC50 was 5.31.

**Q.** With `CCCCCCCCCC(=O)C[C@@H](O)C[C@@H]1CC=CC(=O)O1` as the compound, how does the pIC50 read?
**A.** Its pIC50 is 5.28.

**Q.** With `CCCCCCCCCC(=O)C[C@H](O)C[C@@H]1CC=CC(=O)O1` as the compound, how does the pIC50 read?
**A.** Its pIC50 is 5.92.
